Assay results published in ChEMBL document CHEMBL1201862, “PubChem BioAssay data set” (2004).
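Cultured in 96-well plates, cells were exposed to test compound for 48 hours across five concentrations. GI50 = concentration required for 50% inhibition of growth.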 Calls of active or inactive are those of the source. Rule as the data show it: active = GI50 up to about 1.1 µM and inactive = higher.

Tests used:
Experiment in all cases: growth of human tumour cells (NCI), 48 h
HCT-116 = tested on: HCT-116
Hs-578T = tested on: Hs-578T
K562 = tested on: K562
MDA-MB-231 = tested on: MDA-MB-231
MDA-N = tested on: MDA-N
NCI-H460 = tested on: NCI-H460
NCI/ADR-RES = tested on: NCI/ADR-RES
OVCAR-4 = tested on: OVCAR-4
OVCAR-5 = tested on: OVCAR-5
PC-3 = tested on: PC-3
RPMI-8226 = tested on: RPMI-8226
SF-295 = tested on: SF-295
SF-539 = tested on: SF-539
SK-MEL-2 = tested on: SK-MEL-2
SK-MEL-5 = tested on: SK-MEL-5
SK-OV-3 = tested on: SK-OV-3
SNB-75 = tested on: SNB-75
SW-620 = tested on: SW-620
U-251 = tested on: U-251
UO-31 = tested on: UO-31

Compound | GI50 (HCT-116) | GI50 (Hs-578T) | GI50 (K562) | GI50 (MDA-MB-231) | GI50 (MDA-N) | GI50 (NCI-H460) | GI50 (NCI/ADR-RES) | GI50 (OVCAR-4) | GI50 (OVCAR-5) | GI50 (PC-3) | GI50 (RPMI-8226) | GI50 (SF-295) | GI50 (SF-539) | GI50 (SK-MEL-2) | GI50 (SK-MEL-5) | GI50 (SK-OV-3) | GI50 (SNB-75) | GI50 (SW-620) | GI50 (U-251) | GI50 (UO-31)
N#CC(CC(=O)O)=C(c1ccccc1)c1ccccc1 | > 100 µM (inactive) | 70.1 µM (inactive) | > 100 µM (inactive) | > 100 µM (inactive) | > 100 µM (inactive) | > 100 µM (inactive) | > 100 µM (inactive) | > 100 µM (inactive) | > 100 µM (inactive) | > 100 µM (inactive) | > 100 µM (inactive) | > 100 µM (inactive) | > 100 µM (inactive) | > 100 µM (inactive) | > 100 µM (inactive) | > 100 µM (inactive) | > 100 µM (inactive) | > 100 µM (inactive) | > 100 µM (inactive) | > 100 µM (inactive)
Cc1n(CC(C)C)c2c([n+]1C)C(=O)c1ccccc1C2=O | 0.0494 µM (active) | 0.565 µM (active) | 0.431 µM (active) | 0.0486 µM (active) | 0.166 µM (active) | 0.135 µM (active) | 2.43 µM (inactive) | 0.0594 µM (active) | 0.244 µM (active) | 0.0348 µM (active) | 0.0628 µM (active) | 0.415 µM (active) | 0.0479 µM (active) | 0.13 µM (active) | 0.0473 µM (active) | 0.35 µM (active) | 0.416 µM (active) | 0.0432 µM (active) | 0.0588 µM (active) | 1.29 µM (inactive)
COc1ccc(O)c(/C(C)=N/NC(=S)N(C)C)c1 | 19.6 µM (inactive) | > 100 µM (inactive) | 60.1 µM (inactive) | > 20.6 µM (inactive) | > 73.3 µM (inactive) | 15.6 µM (inactive) | 18 µM (inactive) | 2.63 µM (inactive) | > 61.9 µM (inactive) | > 36.4 µM (inactive) | 47.4 µM (inactive) | 31.3 µM (inactive) | 64 µM (inactive) | > 43.2 µM (inactive) | 9.18 µM (inactive) | 42.3 µM (inactive) | 75.5 µM (inactive) | 28.6 µM (inactive) | > 36.6 µM (inactive) | 17.7 µM (inactive)
CC(C)(C)n1c(=O)n2c(-c3ccccc3)c(-c3ccccc3)n2c1=O | 25.4 µM (inactive) | > 100 µM (inactive) | 1.24 µM (inactive) | > 100 µM (inactive) | > 100 µM (inactive) | > 100 µM (inactive) | > 100 µM (inactive) | 72.6 µM (inactive) | > 100 µM (inactive) | 44.7 µM (inactive) | 17.1 µM (inactive) | > 100 µM (inactive) | 36.8 µM (inactive) | 28.8 µM (inactive) | 71.8 µM (inactive) | > 100 µM (inactive) | > 100 µM (inactive) | > 100 µM (inactive) | > 100 µM (inactive) | 12.5 µM (inactive)
O=C(c1ccc(F)cc1)c1cccc(C(=O)c2ccc(F)cc2)n1 | 22.9 µM (inactive) | 25.6 µM (inactive) | > 100 µM (inactive) | 38.6 µM (inactive) | > 100 µM (inactive) | > 100 µM (inactive) | 90.8 µM (inactive) | 71.6 µM (inactive) | > 95.3 µM (inactive) | > 100 µM (inactive) | > 100 µM (inactive) | 3.4 µM (inactive) | 30.8 µM (inactive) | 27.7 µM (inactive) | 51.8 µM (inactive) | 1.53 µM (inactive) | 12.6 µM (inactive) | > 83.9 µM (inactive) | 19.1 µM (inactive) | 45.3 µM (inactive)
C[C@@H]1S[C@H](c2ccccc2F)N2Cc3ccccc3N=C12 | 17.1 µM (inactive) | 27.7 µM (inactive) | 22.9 µM (inactive) | 35 µM (inactive) | 20.7 µM (inactive) | 30.9 µM (inactive) | 24.7 µM (inactive) | 21 µM (inactive) | 28.2 µM (inactive) | 22.9 µM (inactive) | 20.6 µM (inactive) | 26.2 µM (inactive) | 37.9 µM (inactive) | 16.8 µM (inactive) | 17 µM (inactive) | 25.1 µM (inactive) | 25.6 µM (inactive) | 36.4 µM (inactive) | 27.9 µM (inactive) | 17.1 µM (inactive)
COc1cc2c(cc1O)C(Cc1ccc(OCc3ccccc3)c(OCc3ccccc3)c1)N(C(=O)NCCc1ccccc1)CC2 (stereo not given) | 45.1 µM (inactive) | > 100 µM (inactive) | 74.3 µM (inactive) | > 100 µM (inactive) | > 100 µM (inactive) | > 100 µM (inactive) | > 100 µM (inactive) | 78.9 µM (inactive) | > 100 µM (inactive) | 54.7 µM (inactive) | 10.4 µM (inactive) | > 100 µM (inactive) | > 100 µM (inactive) | > 100 µM (inactive) | 33 µM (inactive) | > 100 µM (inactive) | > 100 µM (inactive) | > 100 µM (inactive) | > 100 µM (inactive) | 69 µM (inactive)
c1csc(-c2nn3c(C45CC6CC(CC(C6)C4)C5)nnc3s2)c1 | > 100 µM (inactive) | > 100 µM (inactive) | > 100 µM (inactive) | > 100 µM (inactive) | > 100 µM (inactive) | > 100 µM (inactive) | > 100 µM (inactive) | > 100 µM (inactive) | > 100 µM (inactive) | > 100 µM (inactive) | > 100 µM (inactive) | > 100 µM (inactive) | > 100 µM (inactive) | > 100 µM (inactive) | 93.3 µM (inactive) | > 100 µM (inactive) | > 100 µM (inactive) | > 100 µM (inactive) | > 100 µM (inactive) | 47.5 µM (inactive)
CCn1c(SCC(=O)N/N=C2\SCC(=O)N2c2ccc(C)cc2)nc2ccccc2c1=O | 20 µM (inactive) | 16.4 µM (inactive) | 29.2 µM (inactive) | 20.2 µM (inactive) | 23.6 µM (inactive) | 24.7 µM (inactive) | 19.8 µM (inactive) | 18.2 µM (inactive) | 20.5 µM (inactive) | 21.3 µM (inactive) | 18.5 µM (inactive) | 18.6 µM (inactive) | 17.6 µM (inactive) | 28.9 µM (inactive) | 22.9 µM (inactive) | 19.7 µM (inactive) | 17.1 µM (inactive) | 33.7 µM (inactive) | 20.7 µM (inactive) | 15.1 µM (inactive)
C/C1=C\CC[C@@]2(C)O[C@@H]2C[C@@H]2[C@H](C/C(C)=C/CC1)OC(=O)C21CCN=N1 (stereo not given in full) | > 75 µM (inactive) | 38 µM (inactive) | 6.98 µM (inactive) | > 75 µM (inactive) | > 75 µM (inactive) | 39.6 µM (inactive) | > 75 µM (inactive) | 61.8 µM (inactive) | > 75 µM (inactive) | > 75 µM (inactive) | 31.3 µM (inactive) | 32.4 µM (inactive) | > 75 µM (inactive) | > 75 µM (inactive) | 34.9 µM (inactive) | > 75 µM (inactive) | 25.9 µM (inactive) | > 75 µM (inactive) | > 75 µM (inactive) | > 75 µM (inactive)
